From patent US6118050A, “Hydroxyphenylpyruvate dioxygenase gene from arabidopsis and method of screening for inhibitors thereof” (American Cyanamid Company, priority 1997, dated 2000)

Columns and labels:
[1] = tested on: Lemna; conditions: cited from earlier work
[2] = tested on: albino psdl mutant; conditions: transferred to MS2 medium supplemented with OHPP or HGA; cited from earlier work
[3] = molecular target: partially purified enzyme extracted from maize (HPPD); conditions: partially purified maize enzyme (Schulz et al., 1993); read-out: calculated IC50; cited from earlier work
[4] = molecular target: T1, Arabidopsis HPPD (Arabidopsis thaliana, UniProt P93836); assay: HPPD enzymatic activity by capture of released 14CO2 from 14C-hydroxyphenylpyruvate, extract of E. coli transformed with Arabidopsis HPPD gene; format: biochemical
T1 construct: made in house; host or cells: E. coli (pKK233-2, trc promoter); desalted lysate supernatant
T1 sequence (P93836 1-445): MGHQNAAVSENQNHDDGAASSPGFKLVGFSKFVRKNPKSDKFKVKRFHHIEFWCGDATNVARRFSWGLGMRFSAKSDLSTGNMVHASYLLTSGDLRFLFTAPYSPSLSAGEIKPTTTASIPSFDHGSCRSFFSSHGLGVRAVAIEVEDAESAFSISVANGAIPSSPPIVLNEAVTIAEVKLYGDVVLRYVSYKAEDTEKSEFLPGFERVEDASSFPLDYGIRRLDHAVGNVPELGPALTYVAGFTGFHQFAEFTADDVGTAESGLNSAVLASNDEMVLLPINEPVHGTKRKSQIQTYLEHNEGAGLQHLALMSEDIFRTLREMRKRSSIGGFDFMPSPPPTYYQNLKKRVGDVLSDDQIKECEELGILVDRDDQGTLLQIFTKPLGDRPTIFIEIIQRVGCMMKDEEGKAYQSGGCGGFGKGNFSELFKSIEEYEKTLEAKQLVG
Method: E. coli transformants were treated with 0.1 mg/ml lysozyme in 50 mM potassium phosphate buffer (pH 7.3) at 30° C. for 10 min. Cells were sonicated (3 times, 5 sec each, using a VibraCell sonicator, Sonics and Material, Inc., Danbury, Conn.) and the extract was subjected to centrifugation. The supernatant was desalted on an Econo-Pac 10DG column (Bio-Rad, Richmond, Calif.) that had been equilibrated with 50 mM phosphate buffer (pH 7.3). The desalted HPPD-containing extract was used for the HPPD assay.
HPPD enzymatic activity was determined by the capture of released ^14 CO2 from ^14 C-hydroxyphenylpyruvate (Schulz et al., FEBS Letts. 318:162, 1993; Secor, Plant Physiol. 106:1429, 1994). Reactions were performed in 20 ml scintillation vials, each capped with a serum stopper through which a polypropylene well containing 50 μl of benzethonium hydroxide was suspended. Each 450 μl reaction mixture contained: 50 mM potassium phosphate buffer (pH 7.3); 50 μl of a freshly prepared 1:1 (v/v) mixture of 150 mM reduced glutathione and 3 mM dichlorophenolindophenol; 2500 units of catalase; and bacterial extract (source of HPPD). Enzyme inhibitors were added where indicated. ^14 C-hydroxyphenylpyruvate (50 μl of a 2 mM solution), prepared according to the method of Secor (1994, supra), was added to initiate the reaction, which proceeded at 30° C. for 30 min. The reaction was stopped by adding 100 μl 4 N sulfuric acid and the mixture was incubated for a further 30 min. The radioactivity trapped in benzethonium hydroxide was counted in a scintillation counter.

[5] = molecular target: partially purified HPPD from barnyardgrass (Echinochloa crus-galli L.); conditions: partially purified HPPD from barnyardgrass (Secor, 1994); cited from earlier work
[6] = tested on: susceptible plants; conditions: cited from earlier work
[7] = tested on: E. coli transformed with the Arabidopsis HPPD gene; assay: Brown pigment formation in E. coli transformed with the Arabidopsis HPPD gene (absorption at 450 nm); format: cell-based; conditions: medium supplemented with tyrosine (FIG. 2)
From the text: B. Production of Brown Pigment and Homogentisic Acid in E. coli
No similar brown pigmentation was associated with untransformed E. coli or with E. coli transformed with the control vector.

Which “reversal of the herbicidal effect of sulcotrione” value ([1]; Lemna treated with sulcotrione) does the source give for `O=C(O)Cc1cc(O)ccc1O` [homogentisic acid] here?
Its value is “herbicidal effect could be abolished”.

And the “greening of albino psdl mutant” value [2]?
Its value is “greened”.

With `CS(=O)(=O)c1ccc(C(=O)C2C(=O)CCCC2=O)c(Cl)c1` [sulcotrione, 2-(2-chloro-4-methanesulfonylbenzoyl)-1,3-cyclohexanedione] as the molecule, how does the IC50 [3] read?
Its IC50 is 45 nM.

And the “inhibition of the HPPD activity” value ([4]; at more than 1 μM sulcotrione (FIG. 4))?
Its value is “Nearly complete inhibition”.

And the IC50 ([4]; cell extract of transformed E. coli, pH 7.3, 30° C., 30 min (FIG. 4), read-out: concentration required to cause 50% inhibition of the HPPD activity)?
The IC50 was 100 nM.

What about the Ki [5] of the same molecule?
Its Ki is 9.8 nM.

What about the type of inhibition [5] of the same molecule?
Its type of inhibition is “potent competitive inhibitor”.

And the growth inhibition ([1]; treatment of Lemna)?
The growth inhibition was “severely inhibited growth”.

What about the “pigment, phytoene and tyrosine changes” value ([6]; accompanying bleaching) of the same molecule?
The value was “loss of carotenoids and chlorophyll with an increase in phytoene and tyrosine”.

What about the bleaching [6] of the same molecule?
Its bleaching is “strong bleaching”.

With `N[C@@H](Cc1ccc(O)cc1)C(=O)O` [tyrosine] as the molecule, how does the “formation of the brown pigment” value [7] read?
The value was “increased”.

B1: Arabidopsis HPPD: 4-hydroxyphenylpyruvate dioxygenase (HPPD) from Arabidopsis thaliana (AtHPPD) SEQ ID No: 1 (protein)
chain: MGHQNAAVSENQNHDDGAASSPGFKLVGFSKFVRKNPKSDKFKVKRFHHIEFWCGDATNVARRFSWGLGMRFSAKSDLSTGNMVHASYLLTSGDLRFLFTAPYSPSLSAGEIKPTTTASIPSFDHGSCRSFFSSHGLGVRAVAIEVEDAESAFSISVANGAIPSSPPIVLNEAVTIAEVKLYGDVVLRYVSYKAEDTEKSEFLPGFERVEDASSFPLDYGIRRLDHAVGNVPELGPALTYVAGFTGFHQFAEFTADDVGTAESGLNSAVLASNDEMVLLPINEPVHGTKRKSQIQTYLEHNEGAGLQHLALMSEDIFRTLREMRKRSSIGGFDFMPSPPPTYYQNLKKRVGDVLSDDQIKECEELGILVDRDDQGTLLQIFTKPLGDDRPTIFIEIIQRVGCMMKDEEGKAYQSGGCGGFGKGNFSELFKSIEEYEKTLEAKQLVG
Which HPPD activity ([4]; extract of E. coli transformed with the Arabidopsis HPPD gene, no inhibitor) does the source give for B1 here?
The HPPD activity was 2.7 μmol/mg protein/hr.
